Measured values: US12637473B2, “MDM2 protein degraders” (THE REGENTS OF THE UNIVERSITY OF MICHIGAN, priority 2016, dated 2026)

Test system: RS4; 11 cell line
Assay: CellTiter-Glo Luminescent Cell Viability Assay, cell growth inhibition
Format: cell-based
Details: Homo sapiens, 96 h, 4 days
Protocol: Cell growth inhibitory activity of representative MDM2 protein degraders was determined using CellTiter-Glo® Luminescent Cell Viability Assay. Cells were seeded in 384-well white opaque cell culture plates at a density of 2,000 cells/well with serially diluted compounds and incubated at 37° C. in an atmosphere of 95% air and 5% CO2 for 4 days. Cell viability was determined using the CellTiter-Glo® Luminescent Cell Viability Assay Kit (Promega, Madison, WI) according to the manufacture's instruction. Briefly, a volume of CellTiter-Glo® Reagent equal to the volume of cell culture medium was added to each well, and then the plates were incubated at room temperature for 10-20 minutes. The luminescent signal was measured using a Tecan Infinite M1000 multimode microplate reader (Tecan, Morrisville, NC). The half maximal inhibitory concentration (IC50) was calculated using the GraphPad Prism 5 software (GraphPad Software, La Jolla, CA). Cpd. […] The structure of Cpd.

Row | Structure (SMILES) | IC50
1 | O=C1CCC(N2Cc3c(NC(=O)CCOCCOCCNC(=O)c4ccc(NC(=O)[C@@H]5NC6(CCCCC6)[C@@]6(C(=O)Nc7cc(Cl)ccc76)[C@H]5c5cccc(Cl)c5F)cc4)cccc3C2=O)C(=O)N1 (stereo partly drawn) [Cpd. No. 29, (3′R,4'S,5′R)-6″-chloro-4′-(3-chloro-2-fluorophenyl)-N-(4-((2-(2-(3-((2-(2,6-dioxopiperidin-3-yl)-1-oxoisoindolin-4-yl)amino)-3-oxopropoxy)ethoxy)ethyl)carbamoyl)phenyl)-2″-oxodispiro[cyclohexane-1,2′-pyrrolidine-3′,3″-indoline]-5′-carboxamide] | 15 nM
2 | O=C1CCC(N2Cc3c(NC(=O)CCOCCOCCOCCNC(=O)c4ccc(NC(=O)[C@@H]5NC6(CCCCC6)[C@@]6(C(=O)Nc7cc(Cl)ccc76)[C@H]5c5cccc(Cl)c5F)cc4)cccc3C2=O)C(=O)N1 (stereo partly drawn) [Cpd. No. 30, (3′R,4'S,5′R)-6″-chloro-4′-(3-chloro-2-fluorophenyl)-N-(4-((2-(2-(2-(3-((2-(2,6-dioxopiperidin-3-yl)-1-oxoisoindolin-4-yl)amino)-3-oxopropoxy)ethoxy)ethoxy)ethyl)carbamoyl)phenyl)-2″-oxodispiro[cyclohexane-1,2′-pyrrolidine-3′,3″-indoline]-5′-carboxamide] | 13 nM
3 | O=C1CCC(N2Cc3c(CCCCCNC(=O)c4ccc(NC(=O)[C@@H]5NC6(CCCCC6)[C@@]6(C(=O)Nc7cc(Cl)ccc76)[C@H]5c5cccc(Cl)c5F)cc4)cccc3C2=O)C(=O)N1 (stereo partly drawn) [Cpd. No. 31, (3′R,4'S,5′R)-6″-chloro-4′-(3-chloro-2-fluorophenyl)-N-(4-((5-(2-(2,6-dioxopiperidin-3-yl)-1-oxoisoindolin-4-yl)pentyl)carbamoyl)phenyl)-2″-oxodispiro[cyclohexane-1,2′-pyrrolidine-3′,3″-indoline]-5′-carboxamide] | 1.8 nM
4 | O=C1CCC(N2C(=O)c3cccc(CCCCCNC(=O)c4ccc(NC(=O)[C@@H]5NC6(CCCCC6)[C@@]6(C(=O)Nc7cc(Cl)ccc76)[C@H]5c5cccc(Cl)c5F)cc4)c3C2=O)C(=O)N1 (stereo partly drawn) [Cpd. No. 32, (3′R,4'S,5′R)-6″-chloro-4′-(3-chloro-2-fluorophenyl)-N-(4-((5-(2-(2,6-dioxopiperidin-3-yl)-1,3-dioxoisoindolin-4-yl)pentyl)carbamoyl)phenyl)-2″-oxodispiro[cyclohexane-1,2′-pyrrolidine-3′,3″-indoline]-5′-carboxamide] | 23 nM
5 | O=C1CCC(N2Cc3c(CCCOCCNC(=O)c4ccc(NC(=O)[C@@H]5NC6(CCCCC6)[C@@]6(C(=O)Nc7cc(Cl)ccc76)[C@H]5c5cccc(Cl)c5F)cc4)cccc3C2=O)C(=O)N1 (stereo partly drawn) [Cpd. No. 33, (3′R,4'S,5′R)-6″-chloro-4′-(3-chloro-2-fluorophenyl)-N-(4-((2-(3-(2-(2,6-dioxopiperidin-3-yl)-1-oxoisoindolin-4-yl)propoxy)ethyl)carbamoyl)phenyl)-2″-oxodispiro[cyclohexane-1,2′-pyrrolidine-3′,3″-indoline]-5′-carboxamide] | 2.9 nM
6 | O=C1CCC(N2Cc3c(CCCOCCOCCNC(=O)c4ccc(NC(=O)[C@@H]5NC6(CCCCC6)[C@@]6(C(=O)Nc7cc(Cl)ccc76)[C@H]5c5cccc(Cl)c5F)cc4)cccc3C2=O)C(=O)N1 (stereo partly drawn) [Cpd. No. 35, (3′R,4'S,5′R)-6″-chloro-4′-(3-chloro-2-fluorophenyl)-N-(4-((2-(2-(3-(2-(2,6-dioxopiperidin-3-yl)-1-oxoisoindolin-4-yl)propoxy)ethoxy)ethyl)carbamoyl)phenyl)-2″-oxodispiro[cyclohexane-1,2′-pyrrolidine-3′,3″-indoline]-5′-carboxamide] | 5.7 nM
7 | O=C1CCC(N2Cc3c(CCCOCCOCCOCCNC(=O)c4ccc(NC(=O)[C@@H]5NC6(CCCCC6)[C@@]6(C(=O)Nc7cc(Cl)ccc76)[C@H]5c5cccc(Cl)c5F)cc4)cccc3C2=O)C(=O)N1 (stereo partly drawn) [Cpd. No. 37, (3′R,4'S,5′R)-6″-chloro-4′-(3-chloro-2-fluorophenyl)-N-(4-((2-(2-(2-(3-(2-(2,6-dioxopiperidin-3-yl)-1-oxoisoindolin-4-yl)propoxy)ethoxy)ethoxy)ethyl)carbamoyl)phenyl)-2″-oxodispiro[cyclohexane-1,2′-pyrrolidine-3′,3″-indoline]-5′-carboxamide] | 3.8 nM
8 | O=C1CCC(N2Cc3c(NCc4cn(CCCNC(=O)c5ccc(NC(=O)[C@@H]6NC7(CCCCC7)[C@@]7(C(=O)Nc8cc(Cl)ccc87)[C@H]6c6cccc(Cl)c6F)cc5)cn4)cccc3C2=O)C(=O)N1 (stereo partly drawn) [Cpd. No. 39, (3′R,4'S,5′R)-6″-chloro-4′-(3-chloro-2-fluorophenyl)-N-(4-((3-(4-(((2-(2,6-dioxopiperidin-3-yl)-1-oxoisoindolin-4-yl)amino)methyl)-1H-imidazol-1-yl)propyl)carbamoyl)phenyl)-2″-oxodispiro[cyclohexane-1,2′-pyrrolidine-3′,3″-indoline]-5′-carboxamide] | 1.5 nM
9 | CCN1[C@@H](C(=O)NC23CCC(C(=O)NCCOCCOCCNC(=O)COc4cccc5c4C(=O)N(C4CCC(=O)NC4=O)C5=O)(CC2)CC3)[C@H](c2cccc(Cl)c2F)[C@]2(C(=O)Nc3cc(Cl)ccc32)C12CCCCC2 (stereo partly drawn) [Cpd. No. 45, (3′R,4'S,5′R)-6″-chloro-4′-(3-chloro-2-fluorophenyl)-N-(4-((2-(2-(2-(2-((2-(2,6-dioxopiperidin-3-yl)-1,3-dioxoisoindolin-4-yl)oxy)acetamido)ethoxy)ethoxy)ethyl)carbamoyl)bicyclo[2.2.2]octan-1-yl)-1′-ethyl-2″-oxodispiro[cyclohexane-1,2′-pyrrolidine-3′,3″-indoline]-5′-carboxamide] | 35 nM
10 | COc1cc(C(=O)NCCOCCOCCNc2cccc3c2C(=O)N(C2CCC(=O)NC2=O)C3=O)ccc1NC(=O)[C@@H]1N[C@@H](CC(C)(C)C)[C@](C#N)(c2ccc(Cl)cc2F)[C@H]1c1cccc(Cl)c1F (stereo partly drawn) [Cpd. No. 57, (2R,3S,4R,5S)-3-(3-chloro-2-fluorophenyl)-4-(4-chloro-2-fluorophenyl)-4-cyano-N-(4-((2-(2-(2-((2-(2,6-dioxopiperidin-3-yl)-1,3-dioxoisoindolin-4-yl)amino)ethoxy)ethoxy)ethyl)carbamoyl)-2-methoxyphenyl)-5-neopentylpyrrolidine-2-carboxamide] | 13 nM

Other lines, results leading:

Row | IC50 | Structure (SMILES)
11 | 17.8 nM | O=C1CCC(N2C(=O)c3cccc(CCCOCCNC(=O)c4ccc(NC(=O)[C@@H]5NC6(CCCCC6)[C@@]6(C(=O)Nc7cc(Cl)ccc76)[C@H]5c5cccc(Cl)c5F)cc4)c3C2=O)C(=O)N1 (stereo partly drawn) [Cpd. No. 34, (3′R,4'S,5′R)-6″-chloro-4′-(3-chloro-2-fluorophenyl)-N-(4-((2-(3-(2-(2,6-dioxopiperidin-3-yl)-1,3-dioxoisoindolin-4-yl)propoxy)ethyl)carbamoyl)phenyl)-2″-oxodispiro[cyclohexane-1,2′-pyrrolidine-3′,3″-indoline]-5′-carboxamide]
12 | 37.4 nM | O=C1CCC(N2C(=O)c3cccc(CCCOCCOCCNC(=O)c4ccc(NC(=O)[C@@H]5NC6(CCCCC6)[C@@]6(C(=O)Nc7cc(Cl)ccc76)[C@H]5c5cccc(Cl)c5F)cc4)c3C2=O)C(=O)N1 (stereo partly drawn) [Cpd. No. 36, (3′R,4'S,5′R)-6″-chloro-4′-(3-chloro-2-fluorophenyl)-N-(4-((2-(2-(3-(2-(2,6-dioxopiperidin-3-yl)-1,3-dioxoisoindolin-4-yl)propoxy)ethoxy)ethyl)carbamoyl)phenyl)-2″-oxodispiro[cyclohexane-1,2′-pyrrolidine-3′,3″-indoline]-5′-carboxamide]
13 | 46 nM | O=C1CCC(N2C(=O)c3cccc(CCCOCCOCCOCCNC(=O)c4ccc(NC(=O)[C@@H]5NC6(CCCCC6)[C@@]6(C(=O)Nc7cc(Cl)ccc76)[C@H]5c5cccc(Cl)c5F)cc4)c3C2=O)C(=O)N1 (stereo partly drawn) [Cpd. No. 38, (3′R,4'S,5′R)-6″-chloro-4′-(3-chloro-2-fluorophenyl)-N-(4-((2-(2-(2-(3-(2-(2,6-dioxopiperidin-3-yl)-1,3-dioxoisoindolin-4-yl)propoxy)ethoxy)ethoxy)ethyl)carbamoyl)phenyl)-2″-oxodispiro[cyclohexane-1,2′-pyrrolidine-3′,3″-indoline]-5′-carboxamide]
14 | 1.5 nM | CC1(C)CCC2(CC1)N[C@@H](C(=O)Nc1ccc(C(=O)NCCOCCOCCNc3cccc4c3C(=O)N(C3CCC(=O)NC3=O)C4=O)cc1)[C@H](c1cccc(Cl)c1F)[C@]21C(=O)Nc2cc(Cl)ccc21 (stereo partly drawn) [Cpd. No. 52, (3′R,4'S,5′R)-6″-chloro-4′-(3-chloro-2-fluorophenyl)-N-(4-((2-(2-(2-((2-(2,6-dioxopiperidin-3-yl)-1,3-dioxoisoindolin-4-yl)amino)ethoxy)ethoxy)ethyl)carbamoyl)phenyl)-4,4-dimethyl-2″-oxodispiro[cyclohexane-1,2′-pyrrolidine-3′,3″-indoline]-5′-carboxamide]
15 | 5.2 nM | CC1(C)CCC2(CC1)N[C@@H](C(=O)Nc1ccc(C(=O)NCCCOCCOCCOCCCNc3cccc4c3C(=O)N(C3CCC(=O)NC3=O)C4=O)cc1)[C@H](c1cccc(Cl)c1F)[C@]21C(=O)Nc2cc(Cl)ccc21 (stereo partly drawn) [Cpd. No. 53, (3′R,4'S,5′R)-6″-chloro-4′-(3-chloro-2-fluorophenyl)-N-(4-((3-(2-(2-(3-((2-(2,6-dioxopiperidin-3-yl)-1,3-dioxoisoindolin-4-yl)amino)propoxy)ethoxy)ethoxy)propyl)carbamoyl)phenyl)-4,4-dimethyl-2″-oxodispiro[cyclohexane-1,2′-pyrrolidine-3′,3″-indoline]-5′-carboxamide]
